# Source: US20240140957A1, “BRIDGED COMPOUNDS AS KRAS G12D INHIBITOR AND DEGRADER AND THE USE THEREOF” (BeiGene Switzerland GmbH, priority 2021, published 2024)
# Target: GDP-loaded KRAS G12D (Homo sapiens, UniProt P01116, G12D)
# Assay: KRAS G12D Probe Displacement Assay
# Format: binding
# Conditions: KRAS G12D 0.5 nM, biotinylated probe 2 4 nM; Table 6 letters; read-out: KRAS G12D Probe Displacement Assay IC50 (class)
# Sequence of GDP-loaded KRAS G12D (P01116 1-188 isoform P01116-2 G12D): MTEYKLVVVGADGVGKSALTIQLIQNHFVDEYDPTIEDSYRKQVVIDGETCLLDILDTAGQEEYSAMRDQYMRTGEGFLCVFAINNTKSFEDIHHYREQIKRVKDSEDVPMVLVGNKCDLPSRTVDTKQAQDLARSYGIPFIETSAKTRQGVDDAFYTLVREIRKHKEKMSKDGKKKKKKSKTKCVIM
row,Structure (SMILES),IC50
1,"Nc1nc2c(-c3c(C(F)(F)F)cc4c(N5CC6CCC(C5)N6)nc(OCC5(CO)CCCCC5)nc4c3F)ccc(F)c2s1 [Example E191, (1-(((7-(2-amino-7-fluorobenzo[d]thiazol-4-yl)-4-(3,8-diazabicyclo[3.2.1]octan-3-yl)-8-fluoro-6-(trifluoromethyl)quinazolin-2-yl)oxy)methyl)cyclohexyl) methanol]",< 50 nM
2,"N#CC1(COc2nc(N3CC4CCC(C3)N4)c3cc(C(F)(F)F)c(-c4ccc(F)c5sc(N)nc45)c(F)c3n2)CCCC1 [Example E192, 1-(((7-(2-amino-7-fluorobenzo[d]thiazol-4-yl)-4-(3,8-diazabicyclo [3.2.1]octan-3-yl)-8-fluoro-6-(trifluoromethyl)quinazolin-2-yl)oxy)methyl)cyclopentane-1-carbonitrile]",< 50 nM
3,"Cc1cc(N)nc(-c2c(Cl)cc3c(N4CC5CCC(C4)N5)nc(OCC(C)(C)CO)nc3c2F)c1C(F)(F)F [Example E193, 3-((7-(6-amino-4-methyl-3-(trifluoromethyl)pyridin-2-yl)-4-(3,8-diazabicyclo[3.2.1]octan-3-yl)-6-chloro-8-fluoroquinazolin-2-yl)oxy)-2,2-dimethylpropan-1-ol]",< 50 nM
4,"Cc1cc(N)nc(-c2c(Cl)cc3c(N4CC5CCC(C4)N5)nc(OCC(C)(C)C#N)nc3c2F)c1C(F)(F)F [Example E194, 3-((7-(6-amino-4-methyl-3-(trifluoromethyl)pyridin-2-yl)-4-(3,8-diazabicyclo[3.2.1]octan-3-yl)-6-chloro-8-fluoroquinazolin-2-yl)oxy)-2,2-dimethylpropanenitrile]",< 50 nM
5,"Cc1cc(N)nc(-c2c(Cl)cc3c(N4CC5CCC(C4)N5)nc(OCC4(C#N)CCOCC4)nc3c2F)c1C(F)(F)F [Example E195, 4-(((7-(6-amino-4-methyl-3-(trifluoromethyl)pyridin-2-yl)-4-(3,8-diazabicyclo[3.2.1]octan-3-yl)-6-chloro-8-fluoroquinazolin-2-yl)oxy)methyl)tetrahydro-2H-pyran-4-carbonitrile]",< 50 nM
6,"Cc1cc(N)nc(-c2c(Cl)cc3c(N4CC5CCC(C4)N5)nc(OCC4(CO)CCOCC4)nc3c2F)c1C(F)(F)F [Example E196, (4-(((7-(6-amino-4-methyl-3-(trifluoromethyl)pyridin-2-yl)-4-(3,8-diazabicyclo[3.2.1]octan-3-yl)-6-chloro-8-fluoroquinazolin-2-yl)oxy)methyl)tetrahydro-2H-pyran-4-yl)methanol]",< 50 nM
7,"Cc1cc(N)nc(-c2c(Cl)cc3c(N4CC5CCC(C4)N5)nc(OCC4(CO)CC4)nc3c2F)c1C(F)(F)F [Example E197, (1-(((7-(6-amino-4-methyl-3-(trifluoromethyl)pyridin-2-yl)-4-(3,8-diazabicyclo[3.2.1]octan-3-yl)-6-chloro-8-fluoroquinazolin-2-yl)oxy)methyl)cyclopropyl) methanol]",< 50 nM
8,"Cc1cc(N)nc(-c2c(Cl)cc3c(N4CC5CCC(C4)N5)nc(OCC4(CO)CCCC4)nc3c2F)c1C(F)(F)F [Example E198, (1-(((7-(6-amino-4-methyl-3-(trifluoromethyl)pyridin-2-yl)-4-(3,8-diazabicyclo[3.2.1]octan-3-yl)-6-chloro-8-fluoroquinazolin-2-yl)oxy)methyl)cyclopentyl) methanol]",50 to 100 nM
9,"Cc1cc(N)nc(-c2c(Cl)cc3c(N4CC5CCC(C4)N5)nc(OCC4(C#N)CCCC4)nc3c2F)c1C(F)(F)F [Example E199, 1-(((7-(6-amino-4-methyl-3-(trifluoromethyl)pyridin-2-yl)-4-(3,8-diazabicyclo[3.2.1]octan-3-yl)-6-chloro-8-fluoroquinazolin-2-yl)oxy)methyl)cyclopentane-1-carbonitrile]",50 to 100 nM
10,"Cc1cc(N)nc(-c2c(Cl)cc3c(N4CC5CCC(C4)N5)nc(OCC4(CO)CCC4)nc3c2F)c1C(F)(F)F [Example E200, (1-(((7-(6-amino-4-methyl-3-(trifluoromethyl)pyridin-2-yl)-4-(3,8-diazabicyclo[3.2.1]octan-3-yl)-6-chloro-8-fluoroquinazolin-2-yl)oxy)methyl)cyclobutyl) methanol]",< 50 nM
